The results in this text go back to patent publication US8058242B2, “Chimeric proteins with natriuretic activity” (The University of Queensland, priority 2004, dated 2011).

In data set [1] the target is Endopeptidase (NEP) (EC 3.4.24.11) (Homo sapiens, UniProt P08473). The data set is described as follows: Stability to enzymatic degradation by NEP (Examples 7, 16). The format is in vitro ADME. The settings on record: over the 180 min measurement period, 37° C. The method, then:
The incubation buffer contained 100 mM Tris/HCl and 150 mM NaCl and the pH was adjusted to 7.2-7.4. In each assay, 100 μl of peptide [500 μM] was incubated with 300 μl buffer (with 500 ng Endopeptidase (NEP) or 10 μg Plasmin) at 37° C. 50 μl aliquots were taken at times 5 min, 30 min, 60 min, 90 min, 180 min and 24 h. The reaction was quenched by heating to 100° C. for 4 min and the remaining peptide concentrations measured by RP-HPLC. Note that the levels of Plasmin required to degrade these peptides was several thousands time the levels present in human plasma.
The stability of TDT and was investigated using the same enzymatic degradation assays (NEP, plasmin, pepsin) disclosed in Example 7. […] It is also evident that the increased NEP stability cannot be explained by the length of the tail region alone as the NEP cleavage site residues at the N-terminal end of the loop region.

The test system of data set [2] is CHF-induced sheep. The data set is described as follows: Ovine model of tachycardia induced congestive heart failure (Example 9). The class given is in vivo. The text has this:
All procedures conform with the Guide for the Care and Use of Laboratory Animals published by the US National Institutes of Health (NIH Publication No. 82-23, revised 1996). Six adult crossbred sheep (weight, 50 to 55 kg) were implanted with pacemakers under isoflurane anesthesia and oxygen. A bipolar screw fixation ventricular pacing lead was placed transvenously under fluoroscopic guidance in the apex of the right ventricle. The proximal end of the lead was connected to pacemakers reprogrammed for high-rate pacing (Sigma, Medtronic) that were positioned subcutaneously in the lateral aspect of the neck. Oxytetracycline (5 mL), an antibiotic, and flunixin meglumine (1 mL), an analgesic, were administered subcutaneously prophylactically on the day of surgery. After 3 days of recovery, right ventricular pacing was initiated at 180 bpm and continued for 4 weeks to induce CHF (NYHC III). Animals were anesthetized and an echocardiographic examination and a conductance catheter evaluation were performed.
Animals were randomized to either TNPc or ANP on two consecutive days, according to the schedule in Table 11B. Studies were conducted over a period of 4 days with two study groups.
On the day of the first experiment, after a control period in which baseline measurements were made, drug infusion via a fore-leg vein using new calibrated Terumo syringe pumps was commenced (TNPc or ANP randomized to days 1 or 2) at 2, 4 and 6 pmol/min/kg, each for 30 min. Echocardiographic and conductance catheter evaluations were performed at 30 min after each drug level. On the second day, the experiment was repeated with the other drug (either TNPc or […] according to day 1 treatment) at 2, 4 and 6 pmol/min, each for 30 min and echocardiographic and conductance catheter evaluations were performed at 30 min after each drug level. The animal was euthanased at the conclusion of the experiment. Stock solutions of each peptide were made up under sterile conditions using sterile saline, were protected from light with aluminium foil and kept refrigerated.
Left ventricular (LV) ejection fraction was monitored by echocardiography and the conductance catheter was used to measure LV dP/i, LV end diastolic pressure, LV ESPVR, heart rate and mean arterial pressure (MAP). Values were expressed as mean +/−SEM and were analyzed by Students t-test. A value of p<0.05 was considered significant.

Data set [3] deals with denuded aortic rings, GC A receptor. The data set is described as follows: Relaxation of noradrenaline constricted endothelium-denuded aortic rings (Example 11). Set-up: species or system rat. The settings on record: GC-A mediated. Put shortly: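 Endothelium-denuded thoracic aortic rings (5 mm) from male Sprague Dawley rats were held at 10 g tension in carbogenated physiological salt solution at 37 °C. Denudation was confirmed by under 10% ACh (10 μM) relaxation after phenylephrine (0.3 μM). Rings constricted with noradrenaline, scaled to 40 mM KCl contraction, were relaxed with increasing peptide doses, with at least 3 rings per peptide.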

“And” between values parts separate entries of the source, which are not always exact repeats. Identical values can stand only once. Positions of bridges follow the written chain, without caps; N, C: chain ends. Residues, ends and D or L forms follow the SMILES beside them.

Sequence of Endopeptidase (NEP) (EC 3.4.24.11) (P08473 whole entry): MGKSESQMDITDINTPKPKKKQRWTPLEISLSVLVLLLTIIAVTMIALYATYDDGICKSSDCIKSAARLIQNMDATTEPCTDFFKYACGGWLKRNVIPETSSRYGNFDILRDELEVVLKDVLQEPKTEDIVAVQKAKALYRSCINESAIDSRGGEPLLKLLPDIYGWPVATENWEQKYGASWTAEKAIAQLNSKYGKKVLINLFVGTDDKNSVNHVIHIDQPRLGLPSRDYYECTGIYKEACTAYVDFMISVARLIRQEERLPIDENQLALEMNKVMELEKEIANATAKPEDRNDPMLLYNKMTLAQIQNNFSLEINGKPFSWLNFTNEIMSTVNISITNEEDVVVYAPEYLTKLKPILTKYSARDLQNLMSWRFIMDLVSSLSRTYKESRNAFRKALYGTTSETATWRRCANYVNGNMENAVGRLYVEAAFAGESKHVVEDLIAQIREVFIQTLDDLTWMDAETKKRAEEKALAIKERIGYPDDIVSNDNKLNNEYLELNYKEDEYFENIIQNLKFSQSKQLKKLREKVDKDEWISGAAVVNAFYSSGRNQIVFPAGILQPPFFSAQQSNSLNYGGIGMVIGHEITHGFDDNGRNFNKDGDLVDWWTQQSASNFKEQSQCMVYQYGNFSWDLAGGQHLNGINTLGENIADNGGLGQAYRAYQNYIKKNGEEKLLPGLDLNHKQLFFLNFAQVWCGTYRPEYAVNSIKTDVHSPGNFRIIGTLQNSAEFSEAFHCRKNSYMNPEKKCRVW

Regarding `CC[C@H](C)[C@H](NC(=O)[C@H](CCCCN)NC(=O)[C@H](CO)NC(=O)[C@H](CC(=O)O)NC(=O)[C@@H](N)CO)C(=O)NCC(=O)N[C@@H](CC(N)=O)C(=O)NCC(=O)N[C@H]1CSSC[C@@H](C(=O)N[C@@H](CC(N)=O)C(=O)N[C@@H](CCCNC(=N)N)C(=O)N[C@H](C(=O)N[C@@H](CCSC)C(=O)N[C@@H](CCC(N)=O)C(=O)N[C@@H](CC(N)=O)C(=O)N2CCC[C@H]2C(=O)N2CCC[C@H]2C(=O)N[C@@H](CCCCN)C(=O)N[C@@H](CCCCN)C(=O)N[C@@H](Cc2ccccc2)C(=O)N[C@@H](CO)C(=O)NCC(=O)N[C@@H](CCC(=O)O)C(=O)O)[C@@H](C)CC)NC(=O)CNC(=O)[C@H](CC(C)C)NC(=O)CNC(=O)[C@H](CO)NC(=O)[C@H](C(C)C)NC(=O)[C@H](CO)NC(=O)CNC(=O)[C@H]([C@@H](C)CC)NC(=O)[C@H](CCCNC(=N)N)NC(=O)[C@H](CC(=O)O)NC(=O)[C@H](CC(C)C)NC(=O)[C@@H]2CCCN2C(=O)[C@H](Cc2ccccc2)NC(=O)CNC(=O)[C@H](Cc2ccccc2)NC1=O` [TNPc] (H-SDSKIGNGCFGFPLDRIGSVSGLGCNRIMQNPPKKFSGE-OH; disulfide 9-25), the “degradation by NEP” value in data set [1] is reported as “did not show any degradation”. Moreover, in data set [2] (TNPc infusion), the “reduction of −dp/dt” value turned out to be 27%. In data set [2] (high dose infusion), the “+dP/dt” value is 1078.00, the EDP is recorded as 4.17, the ESPR slope was 3.78 and the ejection fraction is recorded as 61.83. In data set [2] (high dose infusion), the heart rate is listed as 100.67 and the “−dP/dt” value came out at 1298.00. In data set [2] (low dose infusion), the “+dP/dt” value worked out at 1079.67, the EDP is 5.83, the ESPR slope was determined as 2.72 and the ejection fraction worked out at 48.17. Moreover, in data set [2] (low dose infusion), the heart rate came to 98.00 and the “−dP/dt” value is 1469.50. Also, in data set [2] (recovery (30 min)), the “+dP/dt” value stood at 1064.83, the EDP is 7.67, the ESPR slope came out at 3.35 and the ejection fraction is listed as 42.33. Moreover, in data set [2] (recovery (30 min)), the heart rate is recorded as 98.00 and the “−dP/dt” value came to 1201.50. Besides, the “Mean relaxation SEM of denuded aortic rings expressed as % of KCl response” value in data set [3] was determined as 55.0 ± 10.7%.
Turning to `CC[C@H](C)[C@@H]1NC(=O)[C@H](CCCNC(=N)N)NC(=O)[C@H](CC(=O)O)NC(=O)[C@H](CCSC)NC(=O)[C@H](CCCNC(=N)N)NC(=O)CNC(=O)CNC(=O)[C@H](Cc2ccccc2)NC(=O)[C@@H](NC(=O)[C@H](CO)NC(=O)[C@H](CO)NC(=O)[C@H](CCCNC(=N)N)NC(=O)[C@H](CCCNC(=N)N)NC(=O)[C@H](CC(C)C)NC(=O)[C@@H](N)CO)CSSC[C@@H](C(=O)N[C@@H](CC(N)=O)C(=O)N[C@@H](CO)C(=O)N[C@@H](Cc2ccccc2)C(=O)N[C@@H](CCCNC(=N)N)C(=O)N[C@@H](Cc2ccc(O)cc2)C(=O)O)NC(=O)CNC(=O)[C@H](CC(C)C)NC(=O)CNC(=O)[C@H](CO)NC(=O)[C@H](CCC(N)=O)NC(=O)[C@H](C)NC(=O)CNC1=O` [hANP, reference compound], in data set [2] (high dose infusion), the “+dP/dt” value is 1047.00, the EDP turned out to be 3.33, the ESPR slope is given as 3.04 and the ejection fraction worked out at 54.50. Besides, in data set [2] (high dose infusion), the heart rate is on record as 96.33 and the “−dP/dt” value came out at 1332.17. Further, in data set [2] (low dose infusion), the “+dP/dt” value is recorded as 949.33, the EDP was found to be 5.83, the ESPR slope was found to be 2.85 and the ejection fraction amounted to 42.17. Also, in data set [2] (low dose infusion), the heart rate was 91.00 and the “−dP/dt” value worked out at 1336.50. Besides, in data set [2] (recovery (30 min)), the “+dP/dt” value is given as 1035.83, the EDP is listed as 6.33, the ESPR slope worked out at 3.44 and the ejection fraction worked out at 41.00. Further, in data set [2] (recovery (30 min)), the heart rate was 91.00 and the “−dP/dt” value is 1232.17. The “Mean relaxation SEM of denuded aortic rings expressed as % of KCl response” value in data set [3] is 66% and 66.5 ± 2.3%.
